# Biological target: T1, HDAC6 enzyme (Homo sapiens, UniProt Q9UBN7)
# T1 construct: transducing full length HDAC6 gene into Sf-9 insect cells; GST; purchased SignalChem; host or cells: Sf-9 insect cells
# T1 sequence (Q9UBN7 1-1215): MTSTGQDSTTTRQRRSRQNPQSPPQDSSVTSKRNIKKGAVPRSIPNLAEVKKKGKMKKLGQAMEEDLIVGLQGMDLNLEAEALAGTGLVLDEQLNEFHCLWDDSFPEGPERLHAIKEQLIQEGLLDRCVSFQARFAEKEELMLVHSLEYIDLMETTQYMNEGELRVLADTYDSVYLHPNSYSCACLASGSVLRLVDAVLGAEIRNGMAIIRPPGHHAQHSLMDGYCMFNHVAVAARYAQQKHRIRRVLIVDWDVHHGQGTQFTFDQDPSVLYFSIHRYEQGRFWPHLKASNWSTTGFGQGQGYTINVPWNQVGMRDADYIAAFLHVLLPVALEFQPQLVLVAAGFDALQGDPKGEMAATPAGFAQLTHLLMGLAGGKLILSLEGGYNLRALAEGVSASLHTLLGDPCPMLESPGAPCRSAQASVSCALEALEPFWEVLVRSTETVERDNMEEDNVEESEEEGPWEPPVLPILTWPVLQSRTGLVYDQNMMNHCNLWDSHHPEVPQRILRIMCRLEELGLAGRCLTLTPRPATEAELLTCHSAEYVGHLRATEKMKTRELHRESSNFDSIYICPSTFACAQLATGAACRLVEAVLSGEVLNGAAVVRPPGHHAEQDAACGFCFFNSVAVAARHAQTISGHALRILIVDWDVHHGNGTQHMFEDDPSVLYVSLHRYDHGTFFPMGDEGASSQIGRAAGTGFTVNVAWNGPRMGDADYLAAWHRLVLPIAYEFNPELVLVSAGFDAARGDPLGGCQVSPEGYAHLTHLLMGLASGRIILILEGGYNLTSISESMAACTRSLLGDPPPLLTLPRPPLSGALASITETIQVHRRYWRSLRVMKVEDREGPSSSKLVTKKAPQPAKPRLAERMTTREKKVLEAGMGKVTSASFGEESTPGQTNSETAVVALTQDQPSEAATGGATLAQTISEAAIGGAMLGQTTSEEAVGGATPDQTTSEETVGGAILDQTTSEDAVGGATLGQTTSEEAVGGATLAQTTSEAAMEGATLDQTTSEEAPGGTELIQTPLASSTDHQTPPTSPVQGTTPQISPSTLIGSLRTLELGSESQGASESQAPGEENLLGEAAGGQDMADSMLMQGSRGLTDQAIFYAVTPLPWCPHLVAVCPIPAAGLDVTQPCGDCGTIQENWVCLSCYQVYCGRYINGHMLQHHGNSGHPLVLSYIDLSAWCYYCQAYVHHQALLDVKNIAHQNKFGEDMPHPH
# Assay: HDAC6 enzyme inhibitory activity (HDAC-Glo I/II Assay kit)
# Type: biochemical
# Settings: 10 μM; wells without enzyme = 100% inhibition; read-out: HDAC6 inhibitory rate (%) (10 μM)
# How it was run: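 Test compound is preincubated 60 min at RT with full-length insect-cell HDAC6 in Tris-HCl pH 7.5 with 135 mM NaCl and 1 mM MgCl2. A 20 min room-temperature HDAC-Glo reaction follows, with luminescent read-out.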
row,SMILES,inhibition at 10 µM [%]
1,"O=C1c2cc(-c3nnc(C(F)F)o3)cc(F)c2CN1C[C@@H]1CCCN1C(=O)C1CC1 [Example 379, 2-(((2S)-1-(cyclopropyl-carbonyl)pyrrolidin-2-yl)methyl)-6-(5-(difluoromethyl)-1,3,4-oxadiazol-2-yl)-4-fluoro-isoindolin-1-one]",97
2,"O=C1c2cc(-c3nnc(C(F)F)o3)cnc2CN1[C@@H]1CCC(F)(F)C[C@H]1NC(=O)C(F)(F)C(F)F [Example 641, N-((1R,2R)-2-(3-(5-(difluoromethyl)-1,3,4-oxadiazol-2-yl)-5-oxo-5,7-dihydro-6H-pyrrolo[3,4-b]pyridin-6-yl)-5,5-difluorocyclohexyl)-2,2,3,3-tetrafluoropropanamide]",99
3,"Cc1cccc(-c2ccccc2N2Cc3ccc(-c4nnc(C(F)F)o4)cc3C2=O)c1 [Example 312, 6-(5-(difluoromethyl)-1,3,4-oxadiazol-2-yl)-2-(3′-methyl-biphenyl-2-yl)isoindolin-1-one]",96
4,"O=C1c2cc(-c3nnc(C(F)F)o3)ccc2CN1[C@@H]1CCCC[C@H]1N(C(=O)C(F)F)c1ccccn1 [Example 337, N-((1R,2R)-2-(6-(5-(difluoromethyl)-1,3,4-oxadiazol-2-yl)-1-oxo-1,3-dihydro-2H-isoindol-2-yl)-cyclohexyl)-2,2-difluoro-N-(pyridin-2-yl)acetamide]",101
5,"O=C(N[C@@H]1CCCC[C@H]1N1Cc2ncc(-c3nnc(C(F)F)o3)cc2C1=O)OC1CC1 [Example 150, cyclopropyl ((1R,2R)-2-(3-(5-(difluoromethyl)-1,3,4-oxadiazol-2-yl)-5-oxo-5,7-dihydro-6H-pyrrolo[3,4-b]pyridin-6-yl)cyclohexyl)carbamate]",97
6,"O=C1c2cc(-c3nnc(C(F)F)o3)ccc2CN1c1cccc(F)c1Br [Example 373, 2-(2-bromo-3-fluorophenyl)-6-(5-(difluoromethyl)-1,3,4-oxadiazol-2-yl)isoindolin-1-one]",97
7,"CC1(C(=O)N[C@@H]2CCCC[C@H]2N2Cc3ccc(-c4nnc(C(F)F)o4)cc3C2=O)COC1 [Example 16, N-((1R,2R)-2-(6-(5-(difluoromethyl)-1,3,4-oxadiazol-2-yl)-1-oxo-1,3-dihydro-2H-isoindol-2-yl)cyclohexyl)-3-methyloxetane-3-carboxamide]",100
8,"O=C1c2cc(-c3nnc(C(F)F)o3)cnc2CN1C1(c2ccc(F)cc2)CC1 [Example 347, 3-(5-(difluoromethyl)-1,3,4-oxadiazol-2-yl)-6-(1-(4-fluorophenyl)cyclopropyl)-6,7-dihydro-5H-pyrrolo[3,4-b]pyridin-5-one]",98
9,"O=C1c2cc(-c3nnc(C(F)F)o3)ccc2CN1c1ccccc1-c1ccccc1 [Example 129, 2-(biphenyl-2-yl)-6-(5-(difluoromethyl)-1,3,4-oxadiazol-2-yl)isoindolin-1-one]",100
10,"O=C(N[C@@H]1CCCC[C@H]1N1Cc2ccc(-c3nnc(C(F)F)o3)cc2C1=O)C1CCOCC1 [Example 95, N-((1R,2R)-2-(6-(5-(difluoromethyl)-1,3,4-oxadiazol-2-yl)-1-oxo-1,3-dihydro-2H-isoindol-2-yl)cyclohexyl)tetrahydro-2H-pyran-4-carboxamide]",96
11,"CCC(F)(F)C(=O)N[C@@H]1CCCC[C@H]1N1Cc2ncc(-c3nnc(C(F)F)o3)cc2C1=O [Example 195, N-((1R,2R)-2-(3-(5-(difluoromethyl)-1,3,4-oxadiazol-2-yl)-5-oxo-5,7-dihydro-6H-pyrrolo[3,4-b]pyridin-6-yl)cyclohexyl)-2,2-difluorobutanamide]",100
12,"O=C1c2cc(-c3nnc(C(F)F)o3)cnc2CN1Cc1cc(F)cc(F)c1 [Example 353, 6-(3,5-difluorobenzyl)-3-(5-(difluoromethyl)-1,3,4-oxadiazol-2-yl)-6,7-dihydro-5H-pyrrolo[3,4-b]pyridin-5-one]",98
